Assay results published in paper PMC7033200, “Annexin A1 accounts for an anti-inflammatory binding target of sesamin metabolites” (NPJ Science of Food, 2020).

Columns and labels:
[1] = tested on: extracellular ANX A1 release from U937 cells; assay: Extracellular release of ANX A1 from U937 cells (ELISA); assay type: cell-based, human; conditions: for cellular release of ANX A1: PMA/LPS-treated U937 cells
Protocol: (§1) For enzyme-linked immunosorbent assay (ELISA) assays, U937 cells (control or ANX A1 KD) were seeded on 96-well plates and stimulated by adding 100 nmol L^−1 phorbol myristate acetate (Sigma-Aldrich, MO, USA) for 24 h. The cells were treated for 12 h with LPS (100 ng mL^−1) with or without adding the indicated sesamin, SC1, or SC2 and/or PD98059 concentrations. The cell culture supernatants were collected, and TNFα or ANX A1 production was measured using ELISA (TNFα: R&D Systems; ANX A1: USCN, Wuhan, China) according to the manufacturer’s instructions.

[2] = tested on: phosphorylated (Ser27) ANX A1 in U937 cells; assay: ANX A1 Ser27 phosphorylation in U937 cells (western blotting); assay type: cell-based, human; conditions: treated 1 h prior to LPS treatment
Protocol: For analyses of ANX A1 phosphorylation, the U937 cells treated as above were lysed with NP40 lysis buffer (20 mmol L^−1 Tris-HCl (pH 7.5), 150 mmol L^−1 NaCl, 1% NP40), and the lysates (10 μg) were subjected to SDS-PAGE, followed by western blotting using antibodies against ANX A1 or phosphorylated (Ser27) ANX A1 (dilution: 1:1000).

[3] = target: T1, ANX A1 (Homo sapiens, UniProt P04083); assay: Isothermal titration calorimetry (ITC) binding to ANX A1
T1 construct: The ANX A1 cDNA fragment, full-length (1–346 a.a.) or deletion mutants; GST (pGEX-6P-1) (N, cleaved yes); made in house; host or cells: Escherichia coli BL21 (DE3)
T1 sequence (P04083 1-346): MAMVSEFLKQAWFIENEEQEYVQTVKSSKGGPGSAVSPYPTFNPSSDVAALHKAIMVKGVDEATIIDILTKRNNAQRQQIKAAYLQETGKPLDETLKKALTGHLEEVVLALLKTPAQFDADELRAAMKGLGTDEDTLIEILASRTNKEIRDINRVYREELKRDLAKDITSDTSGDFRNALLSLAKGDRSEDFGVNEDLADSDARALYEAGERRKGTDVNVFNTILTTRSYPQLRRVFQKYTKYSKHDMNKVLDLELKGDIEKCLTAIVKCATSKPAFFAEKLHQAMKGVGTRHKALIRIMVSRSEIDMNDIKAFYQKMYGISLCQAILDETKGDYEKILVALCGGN
Protocol: ITC experiments were performed at 298 K with ITC buffer (20 mmol L^−1 Tris-HCl (pH 7.5), 100 mmol L^−1 NaCl, 2% dimethyl sulfoxide) using a MicroCal iTC200 (Malvern). SC1 or SC2 were dissolved at 2 mmol L^−1 with ITC buffer and titrated into 1 μmol L^−1 of ANX A1 protein with or without 2 mmol L^−1 EDTA (for apo-ANX A1) or 3 mmol L^−1 CaCl2 (for Ca^2+-bound ANX A1). The titration was performed by injecting 2 µL of the syringe solution at intervals of 120 s. The binding isotherms were analysed using SEDPHAT.[54]

[4] = tested on: CCl4-treated WT mice; assay: CCl4-induced liver damage and inflammation in WT mice; assay type: in vivo, mouse (C57BL/6J)
Description: (§2) All protocols for animal procedures were approved by the Ethics Committee of Animal Experiments in accordance with the Internal Regulations on Animal Experiments at Keio University and Suntory Holdings Ltd, which are based on the Law for the Humane Treatment and Management of Animals (Law No. 105, 1 October 1973, as amended on 30 May 2014). Male C57BL/6J wild-type (WT) mice were purchased from CLEA Japan Inc. (Tokyo, Japan). WT and ANX A1-KO mice at 7 to 9 weeks of age received an intraperitoneal injection of vehicle (corn oil, 16.7 mL kg^−1) or CCl4 (50 μL kg^−1). To evaluate the effect of sesamin, vehicle (olive oil, 5 mL kg^−1) or sesamin (25 mg kg^−1) was orally administered twice at 1 h before and 7 h after CCl4 injection. To evaluate the effect of SC1, vehicle (ethanol dissolved in corn oil at a ratio of 1:19, 5 mL kg^−1) or SC1 (50 mg kg^−1) was intraperitoneally administered twice as mentioned above. Mice were euthanized after 12 or 24 h […] CCl4 injection before collecting blood and liver samples. Plasma AST, ALT, or LDH were measured using L-type AST J2, L-type ALT J2 or L-type LD J (Wako, Osaka, Japan), respectively. The liver tissues were fixed with 10% formalin, embedded in paraffin sectioned to 3–4 μm thickness and mounted on slides. Liver sections were de-paraffinized with xylene and re-hydrated with alcohols. The staining was performed with eosin solution for the cytoplasm and Mayer’s haematoxylin solution or monoclonal galectin-3 antibody (1:100, BioLegend, CA, USA). Slides were observed under a light microscope (BX52, Olympus, Japan), and images were analysed using LUMINA VISION (Mitani Corporation, Japan).
(§3) Production of TNFα or MCP-1 in the plasma or liver was measured using a V-PLEX Proinflammatory Panel 1 Mouse Kit or U-PLEX Mouse MCP-1 assay Kit (Meso Scale Diagnostics, USA), respectively. Plasma or liver tissues homogenised in phosphate-buffered saline (Nacalai Tesque) were applied into the pre-coated plate with antibodies against target proteins before labelling with secondary antibodies conjugated to chemiluminescence. The signal intensity was measured using an analyser (SECTOR Imager 6000, Meso Scale Diagnostics, USA).
(§4) Total RNA of the liver was extracted using an RNeasy Mini Kit (Qiagen, USA), and the cDNAs were prepared using High-Capacity cDNA Reverse Transcription Kits (Thermo Fisher Scientific, USA). Quantitative reverse transcription-PCR was performed according to the manufacturer’s instructions using the TaqMan® Gene Expression Assay System (Applied Biosystems, USA) with a 7900HT Fast Real Time PCR System (Applied Biosystems, USA). The levels of target mRNAs were normalised using the expression of the 18S ribosomal RNA. The primer IDs are listed in Supplementary Table 1.

[5] = tested on: CCl4-treated ANX A1-KO mice; assay: CCl4-induced liver damage and inflammation in ANX A1-KO mice; assay type: in vivo, mouse (C57BL/6J)
Description: ANX A1-deficient mice (C57BL/6J) were generated by homologous recombination at Trans Genic Inc. (Fukuoka, Japan), as shown in Fig. S4. The vector targeting ANX A1 for deleting the coding region (exons 3–6) containing selectable neomycin-resistance (Neo) and PGK promoter genes was used. The targeting vector contained the 3.0 kbp of the 5′ arm flanking sequence and 4.5 kbp of the 3′ arm flanking sequence. The PGK-Neor gene was deleted by crossing with the CAG-flp mouse.[58]
as §2, §3, §4

[6] = tested on: TNFα production in U937 cells; assay: TNFα production in PMA/LPS-stimulated U937 cells (ELISA); assay type: cell-based, human; conditions: for inhibition of TNFα production induced by LPS and PMA: U937 cells, dose-dependent
Protocol: as §1

[7] = tested on: TNFα production in ANX A1 KD U937 cells; assay: TNFα production in ANX A1 knockdown U937 cells (ELISA); assay type: cell-based, human; conditions: U937 cells with knocked down ANX A1
Protocol: U937 cells were maintained in RPMI-1640 medium (Gibco/Thermo Fisher Scientific, MA, USA) supplemented with 10% fetal bovine serum. To generate a stable ANX A1-KD cell line, lentivirus vectors encoding a control or shRNA sequence targeting ANX A1 (Supplementary Methods) were transfected into 293FT cells. The lentivirus was prepared according to the manufacturer’s instructions (Invitrogen, MA, USA). U937 cells were infected with the lentivirus, and a stable cell line was selected by maintaining the cells in medium containing 10 μg mL^−1 blasticidin (Invitrogen) for 1 week.
as §1

[8] = sesamin 25 mg kg^−1 twice, 12 h, qPCR, WT
[9] = sesamin 25 mg kg^−1 twice, 12 h after CCl4, WT
[10] = sesamin 25 mg kg^−1 twice, 24 h, qPCR, WT
[11] = sesamin 25 mg kg^−1 orally twice, 24 h, ANX A1-null
[12] = sesamin 25 mg kg^−1 twice, 12 h, qPCR, ANX A1-null
[13] = sesamin 25 mg kg^−1 twice, 12 h after CCl4, ANX A1-null
[14] = sesamin 25 mg kg^−1 twice, 24 h, qPCR, ANX A1-null

SMILES: COc1cccc(-c2cc(=O)c3ccccc3o2)c1N [PD98059, reference compound]
- effect on up-regulation of ANX A1 release ([1]; treated 1 h prior to LPS, dose-dependent): inhibited
- effect on SC1-induced phosphorylation of ANX A1 [2]: suppressed

SMILES: c1cc2c(cc1[C@H]1OC[C@H]3[C@@H]1CO[C@@H]3c1ccc3c(c1)OCO3)OCO2 [Sesamin, (7α,7′α,8α,8′α)-3,4:3′,4′-bis(methylenedioxy)-7,9′:7′,9-diepoxylignane]
- binding activity with ANX A1 using ITC analysis ([3]; ITC): unable to detect any binding activity
- cellular release of ANX A1 [1]: not
- plasma ALT ([4]; sesamin 25 mg kg^−1 orally twice (1 h before, 7 h after CCl4), 24 h, WT): significantly suppressed
- plasma LDH ([4]; sesamin 25 mg kg^−1 orally twice, 24 h, WT): significantly suppressed
- liver injury around the central vein (histology) ([4]; sesamin 25 mg kg^−1 orally twice, H&E, WT): suppressed liver injury
- MCP-1 mRNA expression in the liver [4, 8]: significantly suppressed
- TNFα mRNA expression in the liver [4, 8]: significantly suppressed
- galectin-3 mRNA expression in the liver [4, 8]: significantly suppressed
- MCP-1 protein in the liver [4, 9]: significantly suppressed
- MCP-1 protein in the plasma [4, 9]: significantly suppressed
- TNFα protein in the liver [4, 9]: significantly suppressed
- TNFα protein in the plasma [4, 9]: significantly suppressed
- accumulation of galectin-3-positive cells in the liver ([4]; sesamin 25 mg kg^−1 twice, 24 h, histology, WT): suppressed
- liver mRNA expression of Col1a1 [4, 10]: suppressed
- liver mRNA expression of αSMA [4, 10]: suppressed
- plasma ALT [5, 11]: not observed
- plasma LDH [5, 11]: not observed
- liver injury around the central vein (histology) ([5]; sesamin 25 mg kg^−1 orally twice, H&E, ANX A1-null): not
- MCP-1 mRNA expression in the liver [5, 12]: not observed
- TNFα mRNA expression in the liver [5, 12]: not observed
- galectin-3 mRNA expression in the liver [5, 12]: not observed
- MCP-1 protein in the plasma [5, 13]: not
- TNFα protein in the liver [5, 13]: not
- TNFα protein in the plasma [5, 13]: not
- accumulation of galectin-3-positive cells in the liver ([5]; sesamin 25 mg kg^−1 twice, 24 h, histology, ANX A1-null): not
- liver mRNA expression of Col1a1 [5, 14]: not
- liver mRNA expression of αSMA [5, 14]: not
- inhibition of TNFα production induced by LPS and PMA [6]: little inhibitory effect

SMILES: Oc1ccc(C2OCC3C(c4ccc(O)c(O)c4)OCC23)cc1O (stereo not drawn) [SC2, (7α,7′α,8α,8′α)-7,9′:7′,9-diepoxylignane-3,3′,4,4′-tetraol]
- dH ([3]; 3 mmol L^-1 Ca^2+, ITC): -308.15 kcal/mol
- dS ([3]; 3 mmol L^-1 Ca^2+, ITC): -1010.16 cal/mol K
- Kd ([3]; Ca^2+ form of ANX A1, 3 mmol L^-1 CaCl2, ITC, 298 K, read-out: binding affinity (Kd)): 8.05 µM
- cellular release of ANX A1 [1]: significantly enhanced
- inhibitory effects on TNFα production in ANX A1 knockdown cells [7]: disappeared
- IC50 ([6]; Homo sapiens, U-937, PMA-differentiated U937 cells, LPS, 12 h, ELISA): 10.3 µM
- inhibition of TNFα production induced by LPS and PMA [6]: significantly inhibited
